Assay results published in patent US20070179113A1, “GM-CSF gene therapy for Crohn's disease using an improved regulated expression system” (Schering Aktiengesellachaft, priority 2005, published 2007).
pKd: −log10 of the molar value. Like-named read-outs stand apart in the source and are kept apart here.

What was measured:
[1] = mGM-CSF concentration in sera at day 8 of the DSS colitis study; details: final day of DSS study
Protocol: (§2) At day 8, the final day of the study, mGM-CSF concentrations were measured in sera of all mice.

acute EAE in SJL mice = assay: Mouse acute EAE model, mIFN-β protein; assay type: in vivo; details: IP twice daily; Mesopram 9 mg/kg, Prednisolone 2.5 mg/kg
[2] = system: DSS-induced colitis in Balb/C mice; assay: DSS-induced colitis model (5% DSS), validation, Disease Activity Index; assay type: in vivo; details: daily treatment, Mesopram/Metronidazole 50 mg/kg IP, mGM-CSF 5 μg non-pegylated, 5 or 10 μg pegylated
Protocol: Disease was induced in BalbC mice (N=10/group) by DSS (5%) applied daily in the drinking water. Mesopram, Metronidazole, or yeast expressed non-pegylated respectively pegylated mGM-CSF, was administered daily over a period of 8 days. Clinical scores (Daily Activity Index (DAI), a cumulative index of: weight loss, stool consistency, and rectal bleeding) were recorded daily.
(§1) Likewise, the DSS-induced mouse colitis model is useful for evaluating therapies for UC, IBD and CD. Disease is induced in mice by daily administration of 5% or 7% dextran sodium sulfate (DSS) in the drinking water over 8 days. Disease progression is monitored by the Daily Activity Index (DAI), a cumulative index of: weight loss, stool consistency, and rectal bleeding, which mimics the symptoms of UC, IBD and/or CD.
vi. DSS-induced colitis model. Prior to the gene delivery study the model was established and validated in Balb/C mice using non-pegylated and pegylated mGM-CSF protein. Disease was induced in Balb/C mice with 5% dextran sodium sulfate (DSS), provided in the drinking water every day over a period of 8 days. As the main endpoint, the Disease Activity Index (DAI, a cumulative index of: weight loss, stool consistency, and rectal bleeding) was recorded daily. […]

DSS-induced colitis = DSS-induced colitis model (7% DSS), proof of concept with pCMV-GMCSF plasmid DNA; assay type: in vivo, mice; details: plasmid single injection day 0 + EP, drugs and protein daily
Protocol: Two concentrations of pCMV-mGMCSF were tested side by side with a control plasmid (pNull) and two mGM-CSF protein formulations, non-pegylated and pegylated in the DSS-induced colitis model (N=10/group). A single plasmid DNA injection was administered at day 0 followed by electroporation. Murine GM-CSF protein was injected s.c. daily. Disease was induced with 7% DSS in the drinking water and clinical scores (DIA) were recorded daily.
as §1
vii. […] In this study the efficacy of pGMCSF plasmid DNA was evaluated side by side with Mesopram, Metronidazole, non-pegylated or pegylated mGM-CSF. The disease was induced using 7% DSS, administered daily in the drinking water. Mesopram, Metronidazole and mGM-CSF protein were administered daily, using the same dosing regimen as described for the validation study. pGMCSF plasmid DNA was injected at day 0 followed by electroporation. […]

[3] = mouse, in vivo
Protocol: as §2

GAL-4 DBS = details: read-out: Kd for binding; cited from earlier work

Molecule	GM-CSF in sera at day 8 [1]	clinical scores of EAE, positive controls (acute EAE in SJL mice)	DAI score [2]	disease scores (DAI) (DSS-induced colitis)	GM-CSF in sera at day 8 [3]	pKd (GAL-4 DBS)
CCCOc1cc([C@]2(C)CNC(=O)O2)ccc1OC [Mesopram, reference compound]	not detectable	significantly decreased clinical scores	significantly reduced	efficacious		
Cc1ncc([N+](=O)[O-])n1CCO [Metronidazole, reference compound]			significantly reduced	efficacious	not detectable	
C[C@]12C=CC(=O)C=C1CC[C@@H]1[C@@H]2[C@@H](O)C[C@@]2(C)[C@H]1CC[C@]2(O)C(=O)CO [Prednisolone]		significantly decreased clinical scores				
GAL-4 residues 1-100: N-terminal DNA binding fragment of yeast GAL-4 protein						8.52
